Test results as given in paper PMC3966047, “Analysis of the minimal specificity of caspase-2 and identification of Ac-VDTTD-AFC as a caspase-2-selective peptide substrate” (Bioscience Reports, 2014).
“Also recorded” adds a separate entry of the source. Read-outs that look alike come from different tables or passages of the source. The star is where a group is joined. AFC = O=c1cc(C(F)(F)F)c2ccc(N*)cc2o1; pNA = O=[N+]([O-])c1ccc(N*)cc1

Key:
[1] = system: auto-activating caspase-3 in HEK-293T cell lysate; test: Fluorogenic peptide cleavage by lysates of HEK-293T cells expressing auto-activating caspase-3; assay type: biochemical, human embryonic kidney cells; details: for cleavage by lysates of cells expressing caspase-3 (in words): HEK-293T lysate, auto-activating caspase-3, 0.1 mM substrate, rate of fluorescence increase, three independent transfections
Description: (§1) Caspases were pre-activated for 30 min at 37°C in their preferred buffers, then diluted and mixed with fluorogenic peptide substrates. Fluorescence (excitation 410 nm, emission 500 nm) was measured every 10–60 s for up to 1 h using a FluoStar Galaxy (BMG Labtech). The maximal slope of each curve was calculated. A standard curve, using free AFC (Sigma), was used to convert fluorescence emissions into concentration of AFC produced during the cleavage reactions. Prism 5.0 software was used to determine kcat and KM from three to four independent experiments, as previously described. Ac-DEVD-AFC and Ac-VDVAD-AFC were purchased from Enzo Life Sciences. The custom substrates Ac-VDTTD-AFC and Ac-VDVPD-AFC were synthesized by 21st Century Biochemicals. 150 nM Bid or 100 nM Runx1 proteins were incubated with specified concentrations of caspases in their preferred buffers for 1 h (Runx1) or 0.5 h (Bid variants) at 37°C, then subjected to SDS–PAGE and immunoblotting with anti-Bid (#AF860 R&D Systems) or anti-His6 antibodies (#A00186 GenScript). Secondary antibodies were anti-mouse-HRP (#A9044, Sigma) or anti-goat-HRP (#6300-05, Southern Biotech). The SuperSignal West Dura Substrate (Thermo Scientific) was used to detect signals and quantitation of sub-saturated exposures was performed using a Syngene G:Box and Image Lab 3.0 software (BioRad). Linear regression was used to determine the caspase concentration, which cleaved half of each protein.
(§2) HEK-293T cells [human embryonic kidney cells expressing the large T-antigen of SV40 (simian virus 40)] were cultured, transfected, harvested and lysed as described except that protease inhibitors were not used. Each lysate was mixed with the appropriate fluorogenic substrate (0.1 mM) in caspase buffer, and fluorescence was monitored as outlined above.

caspase-2 [2] = test: Fluorogenic peptide cleavage by purified caspase-2 (AFC release); assay type: biochemical; details: for selectivity for caspase-2 relative to caspase-3 (in words): purified caspases-2 and -3
Description: (§3) Caspases-2, -3 and -8 were purified using NiNTA resin (Qiagen) from BL21(DE3)pLysS bacteria (Novagen/Merck) transformed with pET23a–caspase-2^Δ1−149 [44], pET23a–caspase-3 [54] or pET15b–caspase-8^Δ1−216 plasmids. Induction conditions were: caspase-2, 0.4 mM IPTG (isopropyl β-D-thiogalactoside), 2 h 37°C; caspase-3, 0.2 mM IPTG, 3 h 30°C; caspase-8, 1 mM IPTG, 4 h 25°C. Caspases were active site-titrated using zVAD-fmk (Merck). ArcticExpress DE3 bacteria (Agilent Technologies) were transformed with the pET23a Bid expression plasmids described above, induced for 48 h at 10°C using 1 mM IPTG, then the His6-tagged Bid proteins were purified using NiNTA resin (Qiagen). Recombinant proteins were quantitated using the Bicinchoninic acid protein assay kit (Sigma). Runx1 proteins were synthesized using the TNT T7 quick coupled transcription/translation system (Promega) with non-radioactive methionine, using intact Runx1–pET23a plasmids as templates. The concentration of Runx1 proteins was determined by quantitative anti-His6 immunoblotting, using purified AcP35–His6 [56] as a standard.
as §1

caspase-3 [3] = molecular target: T1, caspase-3 (Homo sapiens, UniProt P42574); test: Fluorogenic peptide cleavage by purified caspase-3 (AFC release); assay type: biochemical
T1 construct: made in house; host or cells: E. coli BL21(DE3)pLysS
T1 sequence (P42574 29-175 limits assumed): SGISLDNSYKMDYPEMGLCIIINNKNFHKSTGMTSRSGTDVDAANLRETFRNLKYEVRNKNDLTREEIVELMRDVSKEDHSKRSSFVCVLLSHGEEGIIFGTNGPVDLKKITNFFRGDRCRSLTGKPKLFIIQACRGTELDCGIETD
T1 sequence (P42574 176-277 limits assumed): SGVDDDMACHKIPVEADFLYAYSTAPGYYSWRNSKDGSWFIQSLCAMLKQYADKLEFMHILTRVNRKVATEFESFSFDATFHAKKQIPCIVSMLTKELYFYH
Description: as §3
as §1, with “150 nM Bid or 100 nM Runx1 proteins were incubated with specified concentrations of caspases in their preferred buffers for 1 h (Runx1) or 0.5 h (Bid variants) at 37°C, then subjected to SDS–PAGE and immunoblotting with anti-Bid (#AF860 R&D Systems) or anti-His6 antibodies (#A00186 GenScript). Secondary antibodies were anti-mouse-HRP (#A9044, Sigma) or anti-goat-HRP (#6300-05, Southern Biotech).” left out, “Linear regression was used to determine the caspase concentration, which cleaved half of each protein.” left out

[4] = system: auto-activating caspase-2 in HEK-293T cell lysate; test: Fluorogenic peptide cleavage by lysates of HEK-293T cells expressing auto-activating caspase-2; assay type: biochemical, human embryonic kidney cells; details: for caspase-2 versus caspase-3 selectivity in cell lysates (in words): HEK-293T lysates with auto-activating caspase-2 or -3, 0.1 mM substrate
Description: as §1, §2

caspase-2 [5] = details: aldehyde inhibitors; cited from earlier work
From the text: (§4) Research into caspase-2 biology has been hampered by a dearth of selective reagents capable of distinguishing between caspases-2 and -3. Peptides and inhibitors based on the sequence VDVAD are marketed as ‘caspase-2-specific’ but also react strongly with caspase-3.

caspase-3 [6] = molecular target: T1, caspase-3; details: aldehyde inhibitors; cited from earlier work
From the text: as §4

caspase-2 [7] = details: cited from earlier work
From the text: (§5) Some of the confusion regarding the function of caspase-2 may stem from researchers’ use of non-specific tools for monitoring its activity and inhibition. […] Subsequent studies have confirmed the lack of specificity associated VDVAD-based tools, yet many researchers continue to employ substrates and inhibitors derived from this peptide sequence as c ...

caspase-3 [8] = molecular target: T1, caspase-3; details: compared with caspase-2; cited from earlier work
From the text: as §5

caspase-2 [9] = details: cited from earlier work; remark: listed apart in the source
From the text: It seems likely that identification of caspase-2 substrates may provide valuable clues to its biological role. […] Apoptotic signalling by caspase-2 has been proposed to result from its processing of the pro-apoptotic Bcl-2 relative Bid. […] Runx1 plays a critical role in haematopoiesis, and Runx1 translocations or other mutations occur frequently in myeloid leukaemias, and less commonly in other cancer types.

caspase-2 [10] = test: Runx1 cleavage by caspase-2 (anti-His6 immunoblot); assay type: biochemical; details: 100 nM in vitro-translated Runx1, 1 h, 37°C
Description: as §3, with “Runx1 proteins were synthesized using the TNT T7 quick coupled transcription/translation system (Promega) with non-radioactive methionine, using intact Runx1–pET23a plasmids as templates.” left out
(§6) Caspases were pre-activated for 30 min at 37°C in their preferred buffers, then diluted and mixed with fluorogenic peptide substrates. Fluorescence (excitation 410 nm, emission 500 nm) was measured every 10–60 s for up to 1 h using a FluoStar Galaxy (BMG Labtech). The maximal slope of each curve was calculated. A standard curve, using free AFC (Sigma), was used to convert fluorescence emissions into concentration of AFC produced during the cleavage reactions. […]

caspase-3 [11] = molecular target: T1, caspase-3; test: Runx1 cleavage by caspase-3 (anti-His6 immunoblot); assay type: biochemical; details: 100 nM in vitro-translated Runx1, 1 h, 37°C
Description: as §3, with “Runx1 proteins were synthesized using the TNT T7 quick coupled transcription/translation system (Promega) with non-radioactive methionine, using intact Runx1–pET23a plasmids as templates.” left out
as §6

caspase-8 [12] = test: Runx1 cleavage by caspase-8 (anti-His6 immunoblot); assay type: biochemical; details: 100 nM in vitro-translated Runx1, 1 h, 37°C
Description: as §3, with “Runx1 proteins were synthesized using the TNT T7 quick coupled transcription/translation system (Promega) with non-radioactive methionine, using intact Runx1–pET23a plasmids as templates.” left out
as §6

caspase-2 [13] = test: Bid protein cleavage by caspase-2 (anti-Bid immunoblot); assay type: biochemical; details: 150 nM Bid protein, 0.5 h, 37°C, preferred buffer, from caspase concentration cleaving half of the substrate
Description: as §3, with “Runx1 proteins were synthesized using the TNT T7 quick coupled transcription/translation system (Promega) with non-radioactive methionine, using intact Runx1–pET23a plasmids as templates.” left out
as §6

caspase-3 [14] = molecular target: T1, caspase-3; test: Bid protein cleavage by caspase-3 (anti-Bid immunoblot); assay type: biochemical; details: 150 nM Bid protein, 0.5 h, 37°C
Description: as §3, with “Runx1 proteins were synthesized using the TNT T7 quick coupled transcription/translation system (Promega) with non-radioactive methionine, using intact Runx1–pET23a plasmids as templates.” left out
as §6

caspase-8 [15] = test: Bid protein cleavage by caspase-8 (anti-Bid immunoblot); assay type: biochemical; details: 150 nM Bid protein, 0.5 h, 37°C
Description: as §3, with “Runx1 proteins were synthesized using the TNT T7 quick coupled transcription/translation system (Promega) with non-radioactive methionine, using intact Runx1–pET23a plasmids as templates.” left out
as §6

caspase-8 [16] = details: subsequent data; cited from earlier work
From the text: It seems likely that identification of caspase-2 substrates may provide valuable clues to its biological role. […] Apoptotic signalling by caspase-2 has been proposed to result from its processing of the pro-apoptotic Bcl-2 relative Bid.

[17] = preferred buffer, anti-Bid immunoblot, from caspase concentration cleaving half of the substrate

## Ac-DEVD-AFC [reference compound]
[1]
  cleavage by lysates of cells expressing caspase-3 (in words): extracts from cells expressing active caspase-3 cleaved Ac-DEVD-AFC most efficiently

## Ac-VDTTD-{AFC} [custom fluorogenic substrate synthesized by 21st Century Biochemicals]
caspase-2 [2]; purified caspase-2
  cleavage by caspase-2 (in words): efficiently cleaved by purified caspase-2
caspase-2 [2]; purified caspase-2, fold versus Ac-VDVAD-AFC
  cleavage efficiency relative to Ac-VDVAD-AFC (caspase-2): four
caspase-2 [2]
  selectivity for caspase-2 relative to caspase-3 (in words): better selectivity for caspase-2 relative to caspase-3 than reagents that are currently available; also recorded: exhibits enhanced caspase-2 sensitivity and specificity, relative to Ac-VDVAD-AFC
caspase-3 [3]
  cleavage by caspase-3 (in words): only cleaved it slightly more efficiently than Ac-VDVAD-AFC
caspase-3 [3]; fold versus Ac-VDVAD-AFC
  cleavage efficiency relative to Ac-VDVAD-AFC (caspase-3): 1.7 times
[4]; HEK-293T lysate, auto-activating caspase-2, 0.1 mM substrate, rate of fluorescence increase, three independent transfections
  cleavage by lysates of cells expressing caspase-2 (in words): efficiently cleaved by purified caspase-2 and auto-activating caspase-2 in mammalian cells; also recorded: lysates from cells expressing active caspase-2 cleaved Ac-VDTTD-AFC more efficiently than the other peptides
[4]
  caspase-2 versus caspase-3 selectivity in cell lysates (in words): significantly more selective for caspase-2 than the commonly used Ac-VDVAD-AFC peptide; also recorded: does not offer this degree of specificity
[4]; lysates from cells expressing caspase-2, background activity in vector transfectant lysates subtracted, 0.1 mM substrate
  VDTTDase activity relative to DEVDase activity: ~14 times
[1]
  cleavage by lysates of cells expressing caspase-3 (in words): proteolysed by lysates containing caspase-3, but at a slower rate than by lysates from cells expressing caspase-2
[1]; cells expressing active caspase-3, Ac-DEVD-AFC versus Ac-VDTTD-AFC, 0.1 mM substrate
  DEVDase activity relative to VDTTDase activity: 3.3 times

## Ac-VDVAD-aldehyde
caspase-2 [5]
  inhibition of caspase-2 compared with caspase-3 (in words): inhibited caspases-2 and -3 with similar potencies
caspase-3 [6]
  inhibition of caspase-3 compared with caspase-2 (in words): inhibited caspases-2 and -3 with similar potencies

## Ac-VDVAD-pNA
caspase-2 [7]
  cleavage by caspase-2 (in words): could efficiently cleave peptides containing the sequence VDVAD
caspase-3 [8]
  cleavage by caspase-3 (in words): caspase-3 could cleave these peptides with similar kinetics

## Ac-VDVAD-{AFC} [classical caspase-2 substrate, purchased from Enzo Life Sciences, reference compound]
[4]
  caspase-2 versus caspase-3 selectivity in cell lysates (in words): cleaved only slightly better by extracts from cells expressing caspase-2 than caspase-3

## Ac-VDVPD-aldehyde
caspase-2 [5]
  inhibition of caspase-2 compared with caspase-3 (in words): inhibited caspases-2 and -3 with similar potencies
caspase-3 [6]
  inhibition of caspase-3 compared with caspase-2 (in words): inhibited caspases-2 and -3 with similar potencies

## Ac-VDVPD-{AFC} [custom fluorogenic substrate based on the Runx1 cleavage site]
caspase-2 [2]; purified caspase-2
  cleavage by caspase-2 (in words): enhanced sensitivity to caspase-2 relative to Ac-VDVAD-AFC; also recorded: cleaved by caspase-2 slightly better than Ac-VDVAD
caspase-2 [2]
  selectivity for caspase-2 relative to caspase-3 (in words): less specific than Ac-VDVAD-AFC for caspase-2 relative to caspase-3; also recorded: lacked the sought-after selectivity for caspase-2 over caspase-3
caspase-3 [3]
  cleavage by caspase-3 (in words): proteolysed this substrate more efficiently than Ac-VDVAD-AFC
[4]
  caspase-2 versus caspase-3 selectivity in cell lysates (in words): cleaved at similar rates in cell lysates containing active caspases-2 or -3

## Cux1: transcription factor Cux1
caspase-2 [9]
  cleavage by caspase-2 (in words): efficiently cleaved

## EIF4B: translation initiation factor EIF4B
caspase-2 [9]; degradomics, lysates
  cleavage by caspase-2 versus other caspases (in words): more efficiently cleaved by caspase-2

## Runx1^DVPG: P1 mutant of Runx1
caspase-2 [10]
  Runx1 cleavage by caspase-2 (in words): yielded a larger product
caspase-3 [11]
  Runx1 cleavage by caspase-3 (in words): yielded a larger product
caspase-8 [12]
  Runx1 cleavage by caspase-8 (in words): yielded a larger product

B1: wild-type Bid: Bid protein bearing the native LQTD cleavage site (protein, UniProt P55957 1-195, looked up)
BH3-interacting domain death …: MDCEVNNGSSLRDECITNLLVFGFLQSCSDNSFRRELDALGHELPVLAPQWEGYDELQTDGNRSSHSRLGRIEADSESQEDIIRNIARHLAQVGDSMDRSIPPGLVNGLALQLRNTSRSEEDRNRDLATALEQLLQAYPRDMEKEKTMLVLALLLAKKVASHTPSLLRDVFHTTVNFINQNLRTYVRSLARNGMD
caspase-2 [13]
  second-order rate constant (estimate of kcat/KM), caspase-2: 3200 M⁻¹ s⁻¹
caspase-3 [14]; immunoblot
  Bid cleavage by caspase-3 (in words): barely sensitive to proteolysis by even high concentrations of caspase-3
caspase-3 [14]; [17]
  second-order rate constant (estimate of kcat/KM), caspase-3: 160 M⁻¹ s⁻¹
caspase-8 [15]
  processing efficiency by caspase-8 relative to caspase-2: about seven
caspase-8 [15]; [17]
  second-order rate constant (estimate of kcat/KM), caspase-8: 22000 M⁻¹ s⁻¹
caspase-2 [9]; initial results
  Bid cleavage by caspases-2 and -8 (in words): could cleave Bid with similar efficiency
caspase-8 [16]
  Bid cleavage by caspase-8 compared with caspase-2 (in words): the processing by caspase-8 was more efficient
